Measurements as given in patent US20230150951A1, “2,5- OR 2,6-DISUBSTITUTED HYDROQUINONE DERIVATIVES WITH AT LEAST ONE CARBOXY, SULFO OR AMIDO GROUP USEFUL AS MEDICAMENTS” (OM PHARMA SA, priority 2020, published 2023).
Like-named read-outs stand apart in the source and are kept apart here.

Experiments:
Type in all cases: cell-based
Human neutrophils [1] = test: Inhibition of ROS production in human neutrophils (isoluminol chemiluminescence); details: Homo sapiens, Neutrophil, fMLP+TNF-α stimulated PMN
Procedure, shortened: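 Neutrophils from healthy-donor buffy coats (3×10^6/ml in HBSS with Ca/Mg) pre-incubated 30 min at 37° C with compound (0.1–10 μM), primed with TNF-α 20 ng/ml for 10 min, then added to fibrinogen-coated wells. Isoluminol/HRP chemiluminescence recorded every 25 sec for 250 sec after fMLP (1 μM), background-subtracted.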

IL-18 = test: Cytokine release after LPS induction on human whole blood: IL-18
Method: (§1) Aim of this in vitro method is to assess compounds effects on release of a panel of cytokines from whole blood following lipopolysaccharide (LPS) induced inflammatory reaction. Whole blood was incubated with compounds for 1 h prior to LPS induction. Cytokine levels in blood were measured using a multiplex FACS-based panel.
(§2) IC50 values determined for the tested compounds expressed in microM [μM] and the values for the inhibition of cytokines were listed for each compound.
(§3) Effect on cytokines release after LPS induction was performed on the compounds dissolved in DMSO or H2O to reach 10-fold concentrated stock solutions and dissolved in culture media.
(§4) Test system: Whole blood was removed from a single donor (into lithium heparin coated tubes; BD Vacutainer; 367886) and diluted 1:5 with RPMI 1640 (Thermo Fisher, 61870036). Within 30 minutes of sampling, blood was incubated with compounds for 1 h prior to LPS stimulation (O111:B4—Sigma L4391; 10 ng/ml final concentration). Stimulation continued under standard cell culture conditions (37° C. with 5% CO2) overnight (18 h), after which plates were centrifuged and supernatant removed and frozen at −80° C. until used for analyses.
(§5) Dilution of test compounds: 10×concentrated solutions (concerning to the final assay concentrations) of each test compound were prepared with the appropriate solvent (in DMSO or in water). These 10× compound solutions (10 μl) were then added to 90 μl pre-diluted whole blood (whole blood: RPMI1640, 1:5) resulting in the final assay concentration.
(§6) Test method: Diluted whole blood (80 μl) was pre-incubated with compounds (10 μl) to give final assay concentrations of 100, 30, 10, 3, 1, 0.3 and 0.1×10^−6M. Blood was incubated at 37° C. with 5% CO2 for 1 h. LPS was diluted in cell culture media to a concentration of […]; 10 μl was added to the whole blood to give a final concentration of 10 ng/ml. Plates were incubated at 37° C. for 18 h. Plates were centrifuged at 3,000 RPM for 5 minutes at 4° C. and supernatant removed and frozen at −80° C. until FACS analysis was carried out.
(§7) Cytokine release was measured using a custom multiplex system (ELISA Genie) according to manufacturers instructions. Prepared samples were run on an Attune NxT flow cytometer (Thermo Fisher).
(§8) Quantification of cytokine release inhibition: known concentration standards were run as part of the cytokine panel to allow quantification of each cytokine concentration in each sample. This was carried out using FCAP Array v3.0 software.
(§9) Results: The dose response relationship on cytokine release following LPS induction of inflammatory response in whole blood was assessed for all compounds. IC50 values were determined for each compound for a panel of cytokines (GM-CSF, IFN-gamma, IL-1beta, IL-2, IL-4, IL-5, IL-6, IL-8, IL-9, IL-10, IL-12p40, IL-13, IL-17A, IL-17F, IL-18, IL-21, IL-22, IL-33, TGF-beta, TNF-alpha, TNF-beta).

IFN-gamma = test: Cytokine release after LPS induction on human whole blood: IFNγ
Method: as §1, §2, §3, §4, §5, §6, §7, §8, §9

GM-CSF = test: Cytokine release after LPS induction on human whole blood: GM-CSF
Method: as §1, §2, §3, §4, §5, §6, §7, §8, §9

IL-9 = test: Cytokine release after LPS induction on human whole blood: IL-9
Method: as §1, §2, §3, §4, §5, §6, §7, §8, §9

IL-1beta = test: Cytokine release after LPS induction on human whole blood: IL-1β
Method: as §1, §2, §3, §4, §5, §6, §7, §8, §9

IL-2 = test: Cytokine release after LPS induction on human whole blood: IL-2
Method: as §1, §2, §3, §4, §5, §6, §7, §8, §9

Human neutrophils [2] = test: Neutrophil adhesion under static conditions; details: fMLP-stimulated adhesion to fibrinogen; method: 40 μM and 80 μM, concentration of the value not stated
Procedure, shortened: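 Donor buffy-coat neutrophils (3×10^6/ml, PBS with Ca/Mg, 10% FCS, pH 7.2) preincubated 30 min at 37° C with 40 μM or 80 μM compound, then stimulated 1 min at 37° C with 1 nM fMLP on fibrinogen-coated glass. Adherent cells fixed and counted by computer; mean ± SD, unpaired t-test.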

[3] = Homo sapiens, LPS 10 ng/ml, 18 h, read-out: Whole Blood: IL-18 IC50
[4] = human whole blood, inhibition of LPS induced inflammation, read-out: IC50 IL-18
[5] = Homo sapiens, LPS 10 ng/ml, 18 h, read-out: Whole Blood: IFNγ IC50
[6] = human whole blood, inhibition of LPS induced inflammation, read-out: IC50 IFNγ
[7] = Homo sapiens, LPS 10 ng/ml, 18 h, read-out: Whole Blood: GM-CSF IC50
[8] = human whole blood, inhibition of LPS induced inflammation, read-out: IC50 GM-CSF
[9] = Homo sapiens, LPS 10 ng/ml, 18 h, read-out: Whole Blood: IL-9 IC50
[10] = human whole blood, inhibition of LPS induced inflammation, read-out: IC50 IL-9
[11] = Homo sapiens, LPS 10 ng/ml, 18 h, read-out: Whole Blood: IL-1β IC50
[12] = human whole blood, inhibition of LPS induced inflammation, read-out: IC50 IL-1b
[13] = Homo sapiens, LPS 10 ng/ml, 18 h, read-out: Whole Blood: IL-2 IC50
[14] = human whole blood, inhibition of LPS induced inflammation, read-out: IC50 IL-2

| Compound | inhibition at 0.3 µM (Human neutrophils [1]) | IC50 (IL-18; [3]) | IC50 (IL-18; [4]) | IC50 (IFN-gamma; [5]) | IC50 (IFN-gamma; [6]) | IC50 (GM-CSF; [7]) | IC50 (GM-CSF; [8]) | IC50 (IL-9; [9]) | IC50 (IL-9; [10]) | IC50 (IL-1beta; [11]) | IC50 (IL-1beta; [12]) | IC50 (IL-2; [13]) | IC50 (IL-2; [14]) | Neutrophil adhesion inhibition (Human neutrophils [2]) | IC50 (Human neutrophils [1]) |
| --- | --- | --- | --- | --- | --- | --- | --- | --- | --- | --- | --- | --- | --- | --- | --- |
| O=C(O)Cc1cc(O)c(C(=O)Nc2ccccc2-c2nnn[nH]2)cc1O [IIIa-001aTz] | 69.3% | 27.7 µM | 27.7 µM | 18.9 µM | 18.9 µM | > 100 µM | 100 µM | 3.01 µM | 3.01 µM | > 100 µM | 100 µM | > 100 µM | 100 µM | 39.74% | – |
| O=C(O)Cc1cc(O)c(C(=O)Nc2c(C(=O)O)cccc2C(=O)O)cc1O [IIIa-013a, 2-(4-(carboxymethyl)-2,5-dihydroxybenzamido)isophthalic acid] | 76.5% | > 100 µM | 100 µM | 0.15 µM | 0.15 µM | 27.8 µM | 27.8 µM | 11.9 µM | 11.9 µM | > 100 µM | 100 µM | 57.1 µM | 57.1 µM | 30.667% | – |
| CC(=O)N(Cc1cc(O)c(C(=O)O)cc1O)Cc1cc(O)c(C(=O)O)cc1O [IIIc-057a, N,N-Bis(4-carboxy-2,5-dihydroxyphenylmethyl)acetamide] | 90.3% | > 100 µM | 100 µM | 0.9 µM | 0.9 µM | > 100 µM | 100 µM | 11.1 µM | 11.1 µM | 16.2 µM | 16.2 µM | 24.2 µM | 24.2 µM | 40.04% | – |
| O=C(O)c1cc(O)c(CN(Cc2cc(O)c(C(=O)O)cc2O)Cc2cc(O)c(C(=O)O)cc2O)cc1O [IIIc-061a, Tris(4-carboxy-2,5-dihydroxyphenylmethyl)amine] | 92.5% | 32.4 µM | 32.4 µM | 2.48 µM | 2.48 µM | 31.2 µM | 31.2 µM | 8.85 µM | 8.85 µM | > 100 µM | 100 µM | > 100 µM | 100 µM | 58.69% | – |
| O=C(O)c1ccccc1CNC(=O)c1cc(O)cc(C(=O)O)c1O [IIa-053a, 3-(2-Carboxyphenylmethylaminocarbonyl)-2,5-dihydroxybenzoic acid] | 63.1% | > 100 µM | 100 µM | 1.04 µM | 1.04 µM | > 100 µM | 100 µM | 1.41 µM | 1.41 µM | > 100 µM | 100 µM | 1.67 µM | 1.67 µM | 20% | 0.62 µM |
| O=C(O)c1cc(NC(=O)c2cc(O)cc(C(=O)Nc3ccc(O)c(C(=O)O)c3)c2O)ccc1O [IIc-007a, 5-(3-(3-carboxy-4-hydroxyphenylaminocarbonyl)-2,5-dihydroxybenzamido)-2-hydroxy benzoic acid] | 93% | > 100 µM | 100 µM | 0.11 µM | 0.11 µM | 26 µM | 26 µM | 2.14 µM | 2.14 µM | > 100 µM | 100 µM | 12.8 µM | 12.8 µM | 64.61% | – |
| O=C(O)c1cc(O)ccc1NC(=O)c1cc(O)cc(C(=O)Nc2ccc(O)cc2C(=O)O)c1O [IIc-009a, 2-(3-(2-carboxy-4-hydroxyphenylaminocarbonyl)-2,5-dihydroxybenzamido)-5-hydroxyl benzoic acid] | 75.3% | 2.95 µM | 2.95 µM | 0.54 µM | 0.54 µM | > 100 µM | 100 µM | 18.9 µM | 18.9 µM | > 100 µM | 100 µM | 19.6 µM | 19.6 µM | 53.15% | – |
| O=C(O)c1cc(O)cc(CSCc2cc(O)cc(C(=O)O)c2O)c1O [IVc-058a, 3-((2,5-Dihydroxy-3-carboxyphenyl)methylthiomethyl)-2,5-dihydroxybenzoic acid] | 77% | > 100 µM | 100 µM | 10.6 µM | 10.6 µM | > 100 µM | 100 µM | 31.1 µM | 31.1 µM | 27.5 µM | 27.5 µM | 3.82 µM | 3.82 µM | 43.5% | 0.29 µM |
| O=C(O)c1cc(O)cc(CS(=O)(=O)Cc2cc(O)cc(C(=O)O)c2O)c1O [IVc-059a, 3-((2,5-Dihydroxy-3-carboxyphenyl)methylsulfonylmethyl)-2,5-dihydroxybenzoic acid] | 74% | > 100 µM | 100 µM | 4.34 µM | 4.34 µM | > 100 µM | 100 µM | 0.4 µM | 0.4 µM | 38.6 µM | 38.6 µM | 21.2 µM | 21.2 µM | 10% | 0.147 µM |
| COC(=O)c1cc(OC(C)=O)cc(CS(=O)(=O)Cc2cc(OC(C)=O)cc(C(=O)OC)c2OC(C)=O)c1OC(C)=O [IVc-059a-E2-A4] | 29.2% | > 100 µM | 100 µM | 3.5 µM | 3.5 µM | 1.83 µM | 1.83 µM | 2.9 µM | 2.9 µM | 14.1 µM | 14.1 µM | 10.4 µM | 10.4 µM | 87.5% | 4.13 µM |
| O=C(O)c1cc(O)c(C(=O)Nc2ccccc2C(=O)O)cc1O [Ia-001a, 4-(2-carboxyphenylaminocarbonyl)-2,5-dihydroxybenzoic acid] | 48% | > 100 µM | 100 µM | 30.5 µM | 30.5 µM | > 100 µM | 100 µM | 5.63 µM | 5.63 µM | 34.4 µM | 34.4 µM | 94.3 µM | 94.3 µM | 44.3% | 0.355 µM |
